{
  "source": "patent US20110044936A1",
  "about": "“Composition for Attracting Bed Bugs” (priority 2009, published 2011)",
  "assay_type_in_all_cases": "in vivo",
  "key": {"[1]": {"tested_on": "bed bugs (Cimex lectularius)", "test": "Bed bug aggregation (attraction) assay, Petri dish arena with treated and control filter paper tents (Example 1)", "conditions": "5 microliters, one hour, five bed bugs, average of two tests", "experimental": "Attraction Assays: Assay arenas were made from 150×15 mm plastic Petri dishes (VWR#25384-326) containing a 125 mm piece off qualitative filter paper (VWR#28320-100) glued to the bottom using 3M Super 77® multipurpose spray adhesive. A 80 mm hole was cut into the lid and a 500 um mesh Nytex® screen (Bioquip, #7293B) was glued to cover the opening using quick epoxy. Fresh bottom dishes were used in each assay. For these experiments 2.4 cm filter paper folded to create a tent were treated with either a control treatment (10 microliters of silicone oil for aldehyde controls and 5 microliters of deionized water for acid controls) or 10 microliters of the experimental test treatment diluted in silicone oil (aldehydes) or 5 microliters of the experimental chemical diluted in deionized water (acids). Ten bed bugs per test were released into the assay arena for the aldehyde test treatments and controls, five bed bugs per test were released into the assay arena for the acid test treatments. Day cycling bed bugs (Cimex lectularius), 12 hour light: 12 hour dark (7 AM On: 7 PM Off) light cycle, were incubated and evaluated under normal room lighting conditions at room temperature. Readings were taken at 1 hour intervals from the release of bed bugs for 4 hours for aldehydes and one hour for acids, due to the quick volatility of the acids. The number of bed bugs under the control filter paper disk and the number of bed bugs under the test treatment filter paper disk were recorded. The test treatment was considered to be an attractant if the number of bed bugs under the experimental filter disk was greater than the number under the control filter disk. Table 1 below summarizes the experimental data, the experimental test treatments considered as attractants are in bold."}, "[2]": {"tested_on": "bed bugs (Cimex lectularius)", "test": "Test arena gas assay, compounds dissolved in nonane (Example 5)", "text": "A test arena was constructed from a 60×40×22 cm (L:W:H) polystyrene container. A 60×40 cm piece of filter paper was glued on the bottom to provide a walking surface for the bed bugs. At one end of the test arena, a triangular piece of plastic (16 cm high×25 cm long) was glued to the middle of the side and bottom of the container to create test zones of equal area on either side of the partition. On each side of this partition a piece of Tygon® tubing was inserted through a hole 7 cm above the bottom of each test zone to deliver a control gas to one side of the partition (control zone) and the experimental gas to the other side of the partition (experimental zone). The tubing was positioned to deliver the gases downward into the test zones with each outlet 6 cm above the filter paper glued to the bottom of the container. At the other end of the test arena, a 4 W night light was placed 35 cm above the bottom of the arena and regulated to a 12 hour light:12 hour dark (7 AM On: 7 PM Off) light cycle. Also placed adjacent to the night light was a small fan (Boston, cat#EHSDF) to create a gentle removal of gases from the distal part of the arena. Air released by the experimental and control gases was contained within their partitions and were gently drawn away from the respective air inputs, mixed within the arena and removed by the fan. This created a laminar flow where the bed bugs had opportunity to select either the experimental or control gas. Fifty bed bugs (Cimex lectularius) were entrapped within an inverted 90 mm Petri dish at a position furthest from the control and experimental zones until bed bugs were quiescent. Removal of the Petri dish started the experiment and readings were taken every hour for two hours. Data collected were number of bed bugs in the experimental, control and free arena zones. In addition, gas temperature, relative humidity, air flow rate, and percent CO2 data were collected. The experimental gas was considered to be an attractant if more bed bugs were in the experimental zone than in the control zone.\nDetermination of Bed Bug Aggregation Effect Using Hexenal, Butyric Acid, trans-2-Hexen-1-al Diethylacetal, Trimethylsilyl Butyrate or Methyl Butyrate Dissolved in an Alkane Solvent Using the test arena and methods described in Example 4, test treatments containing about 300 ppm of a pro-aldehyde compound, trans-2-hexen-1-al diethylacetal, dissolved in nonane, about 300 ppm of Hexenal dissolved in nonane, about 200 ppm of butyric acid dissolved in nonane and about 200 ppm of a pro-organic acid compound, trimethylsilyl butyrate or methyl butyrate, dissolved in nonane were prepared. Separate 100 micro liter pipettes (Drummond Wiretrol 100 μL) were filled with the test solutions. One end of each micro liter pipette was sealed with parafilm leaving one end of each open. […] An air tight lid was placed onto the plastic container and the container was installed in-line after humidity and temperature conditioning of the gas and before the gas entered the arena. The micro liter pipettes were weighed before and after use to determine the amount of the test compounds released. The control gas used for these experiments consisted of house compressed air."}, "[3]": {"tested_on": "bed bugs (Cimex lectularius)", "test": "Bed bug aggregation assay, mixtures of Hexenal, Octenal and butyric acid (Example 3)", "conditions": "for Number of bed bugs under experimental (Exp) disk: H/O 75/25 120 ppm in silicone oil, BA about 100 ppm in deionized water, 5 microliters each, ten bed bugs, average of two tests", "experimental": "Attraction Assays: […] For this test, a mixture of Hexenal and Octenal (75:25 ratio) was diluted in silicone oil to provide about a 120 ppm solution. […] Readings were taken hourly for four hours from the release of bed bugs in the assay arena. The number of bed bugs under the control disk and the number of bed bugs under the experimental disk were recorded. The test chemical was considered to be an attractant if the number of bed bugs under the experimental filter disk was greater than the number under the control disk. Table 3 below summarizes the experimental data, the experimental test treatment considered as attractants are in bold."}, "[4]": {"tested_on": "bed bugs (Cimex lectularius)", "test": "Test arena assay with experimental gas and control gas zones (Example 4)", "conditions": "after two hour exposure; fifty bed bugs; Hexenal/Octenal 75/25 at 73 nanograms/hour, butyric acid 3.097 micrograms/hour @ 100 mL/min air flow; CO2 50%; test gas 23-26 °C; control gas compressed air", "text": "A test arena was constructed from a 60×40×22 cm (L:W:H) polystyrene container. […] At one end of the test arena, a triangular piece of plastic (16 cm high×25 cm long) was glued to the middle of the side and bottom of the container to create test zones of equal area on either side of the partition. On each side of this partition a piece of Tygon® tubing was inserted through a hole 7 cm above the bottom of each test zone to deliver a control gas to one side of the partition (control zone) and the experimental gas to the other side of the partition (experimental zone). The tubing was positioned to deliver the gases downward into the test zones with each outlet 6 cm above the filter paper glued to the bottom of the container. […] Removal of the Petri dish started the experiment and readings were taken every hour for two hours. […] Air temperature was monitored with a high/low thermometer. […] Relative humidity was monitored using a high/low hygrometer placed in-line immediately before the gas entered the arena. […] The relationship between valve settings and air flow was determined and using this information, valve settings were determined that could deliver blended gases (air and CO2) at a flow rate of about 100 or about 200 ml/min. […]"}},
  "data": [
    {"smiles": "CCCC(=O)O", "note": "[Butyric acid, butyric acid]", "values": [
      {"measurement": "Number of bed bugs under experimental (Exp) filter paper disk", "setting": "[1]; organic acid 10 ppm in deionized water", "value": 4},
      {"measurement": "Number of bed bugs under experimental (Exp) filter paper disk", "setting": "[1]; organic acid 50 ppm in deionized water", "value": 2},
      {"measurement": "Number of bed bugs under experimental (Exp) filter paper disk", "setting": "[1]; organic acid 100 ppm in deionized water", "value": 4},
      {"measurement": "Number of bed bugs under experimental (Exp) filter paper disk", "setting": "[1]; organic acid 1000 ppm in deionized water", "value": 4},
      {"measurement": "Number of bed bugs under experimental (Exp) filter paper disk", "setting": "[1]; organic acid 10000 ppm in deionized water", "value": 4},
      {"measurement": "% Bed bugs in Experimental Zone", "setting": "[2]; after two hour exposure, released from nonane solution at 150.0-184.8 nanograms/hour @ 100 mL/min air flow, test gas 21-22 °C, control gas compressed air", "value": 34.0, "unit": "%"},
      {"measurement": "Attraction of bed bugs to gaseous mixture", "setting": "[2]; test arena, two hour exposure, versus control gas", "value": "attracted"},
      {"measurement": "Number of bed bugs under experimental (Exp) disk", "setting": "[3]; 1 Hour", "value": 4.5},
      {"measurement": "Number of bed bugs under experimental (Exp) disk", "setting": "[3]; 2 Hour", "value": 5.5},
      {"measurement": "Number of bed bugs under experimental (Exp) disk", "setting": "[3]; 3 Hour", "value": 4.5},
      {"measurement": "Number of bed bugs under experimental (Exp) disk", "setting": "[3]; 4 Hours", "value": 5},
      {"measurement": "Attraction of bed bugs to experimental filter disks", "setting": "[3]; H/O 75:25 120 ppm, butyric acid 100 ppm", "value": "attracted"}
    ]},
    {"smiles": "O=C=O", "note": "[CO2, carbon dioxide]", "values": [
      {"measurement": "% Bed bugs in Experimental Zone", "setting": "[4]", "value": 76.0, "unit": "%"}
    ]}
  ]
}
